Test results from the supplement of paper PMC10307832.

Key:
Assay in all cases: relative viability (nuclei count vs DMSO), 5 days (fraction); higher = more cells survive
[1] = compound: C1CNCCC1C2=CC(=NN2)C3=CC=NC=C3 + CS(=O)(=O)CCNCc1ccc(-c2ccc3ncnc(Nc4ccc(OCc5cccc(F)c5)c(Cl)c4)c3c2)o1 [Lapatinib] (partner 2 µM)
In short: (§1)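 Medians of duplicate plates are given as relative viability. That measure is the nuclei count in treated wells divided by the count in vehicle wells. Counts were taken on 4× images of lung cancer cell lines in 1536-well plates, 5 days after pin-tool dosing the day after seeding with one drug alone or a fixed anchor-drug dose plus five library-drug doses (not always all listed) in √10 steps.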

Tanzisertib + Decitabine = compound: O[C@H]1CC[C@H](Nc2ncc3nc(Nc4c(F)cc(F)cc4F)n([C@H]4CCOC4)c3n2)CC1 [Tanzisertib] + Nc1ncn([C@H]2C[C@H](O)[C@@H](CO)O2)c(=O)n1 [Decitabine] (partner 2 µM)
In short: as §1

Tanzisertib + Pictilisib = compound: O[C@H]1CC[C@H](Nc2ncc3nc(Nc4c(F)cc(F)cc4F)n([C@H]4CCOC4)c3n2)CC1 [Tanzisertib] + CS(=O)(=O)N1CCN(Cc2cc3nc(-c4cccc5[nH]ncc45)nc(N4CCOCC4)c3s2)CC1 [Pictilisib] (partner 1 µM)
In short: as §1

[2] = compound: C1CNCCC1C2=CC(=NN2)C3=CC=NC=C3 + CS(=O)(=O)N1CCN(Cc2cc3nc(-c4cccc5[nH]ncc45)nc(N4CCOCC4)c3s2)CC1 [Pictilisib] (partner 1 µM)
In short: as §1

Q: Which relative viability ([1]; first compound 0.08 µM) does the source give for SW 1573 here?
A: Its relative viability is 1.03.

Q: And the relative viability ([1]; first compound 0.8 µM)?
A: Its relative viability is 1.21.

Q: What about the relative viability ([1]; first compound 2.53 µM) of the same cell line?
A: Its relative viability is 1.17.

Q: What about the relative viability ([1]; first compound 8 µM) of the same cell line?
A: Its relative viability is 1.25.

Q: What about the relative viability (Tanzisertib + Decitabine; first compound 0.08 µM) of the same cell line?
A: The relative viability was 0.595.

Q: And the relative viability (Tanzisertib + Decitabine; first compound 0.253 µM)?
A: The relative viability was 0.471.

Q: And the relative viability (Tanzisertib + Decitabine; first compound 0.8 µM)?
A: Its relative viability is 0.535.

Q: What about the relative viability (Tanzisertib + Decitabine; first compound 2.53 µM) of the same cell line?
A: Its relative viability is 0.516.

Q: What about the relative viability (Tanzisertib + Decitabine; first compound 8 µM) of the same cell line?
A: The relative viability was 0.394.

Q: What about the relative viability (Tanzisertib + Pictilisib; first compound 0.08 µM) of the same cell line?
A: Its relative viability is 0.63.

Q: And the relative viability (Tanzisertib + Pictilisib; first compound 0.253 µM)?
A: Its relative viability is 0.373.

Q: And the relative viability (Tanzisertib + Pictilisib; first compound 0.8 µM)?
A: The relative viability was 0.481.

Q: What about the relative viability (Tanzisertib + Pictilisib; first compound 2.53 µM) of the same cell line?
A: The relative viability was 0.584.

Q: And the relative viability (Tanzisertib + Pictilisib; first compound 8 µM)?
A: The relative viability was 0.505.

Q: What about the relative viability ([2]; first compound 0.08 µM) of the same cell line?
A: The relative viability was 0.516.

Q: And the relative viability ([2]; first compound 0.8 µM)?
A: The relative viability was 0.533.

Q: What about the relative viability ([2]; first compound 2.53 µM) of the same cell line?
A: The relative viability was 0.496.

Q: And the relative viability ([2]; first compound 8 µM)?
A: Its relative viability is 0.509.
